Results reported in US10821079B2, “PKC activators and combinations thereof” (Cognitive Research Enterprises, Inc., priority 2011, dated 2020).
Entries after “also recorded” stand apart in the source; their conditions may differ.

Assays:
[1] = tested on: SH-SY5Y neuroblastoma cells; test: Neuronal and synaptic marker expression in cells treated with RA and Bryostatin-1 (immunofluorescence, immunoblot); assay type: cell-based, human
Description: Human SH-SY5Y neuroblastoma cells (ATCC) were cultured in 45% F12K, 45% minimum Eagle's medium, 10% fetal calf serum. […] For differentiation of SH-SY5Y cells were maintained at 2% serum and treated with 10 μM RA for 72 hr. […] Medium was changed every 3 days with fresh supplementation of RA. Rat hippocampal neurons from 18-day-old embryonic Sprague-Dawley rat brains were plated on 24-well plates coated with poly-D-lysine (Sigma-Aldrich) in neurobasal medium supplemented with B-27 containing 0.5 mM glutamine and 25 μM glutamate (Invitrogen). The neuronal cells were grown under 5% CO2 for 14 days in an incubator maintained at 37° C.
Cells were harvested in homogenizing buffer containing 10 mM Tris-Cl (pH 7.4), 1 mM PMSF (phenylmethylsulfonyl fluoride), 1 mM EGTA, 1 mM EDTA, 50 mM NaF, and 20 μM leupeptin and were lysed by sonication. […] Protein concentration was measured using the Coomassie Plus (Bradford) Protein Assay kit (Pierce, USA). Following quantification, 20 μg of protein from each sample was subjected to SDS-PAGE analysis in 4-20% gradient Tris-Glycine gel (Invitrogen, USA). […] Western Blot was imaged in the ImageQuant RT-ECL (GE Life Sciences, Piscataway, N.J.) and densitometric quantification was performed using the IMAL software (Blanchette Rockefeller Neurosciences Institute, Morgantown, W. Va.). […]

[2] = tested on: phosphatidylserine (C2) binding site; test: 3H-DCPLA-ME binding to rat brain slices with competitors, film autoradiography
Description: To determine the binding site of DCPLA-ME, ^3H-DCPLA-ME was incubated with rat brain slices in the absence and presence of known C1 and C2 competitors. More specifically, rat brain sections were fixed with formaldehyde, sliced, and incubated with (1) ^3H-DCPLA-ME alone; (2) ^3H-DCPLA-ME with DCPLA; (3) ^3H-DCPLA-ME with Phorbol ester; or (4) ^3H-DCPLA-ME and Bryostatin 1. After incubation, the slices were washed with a buffer made of 130 mM NaCl, 5 mM MgCl, 5 mM KCl, 1 mM EGTA, and 0.1% bovine serum albumin in 10 mM HEPES-NaOH, pH 7.4, dried, and analyzed with film-autoradiography.

PKC-δ = PKC-δ (Homo sapiens, UniProt Q05655); test: Activation of purified PKC isozymes, radiometric: PKC-δ; assay type: biochemical
Description: To measure PKC activity, 10 μg of protein from either cytosol or membrane was incubated for 15 min at 37° C. in the presence of 10 μM histones, 4.89 mM CaCl2, 1.2 μg/μl phosphatidyl-L-serine, 0.18 μg/μl 1,2-dioctanoyl-sn-glycerol, 10 mM MgCl2, 20 mM HEPES (pH 7.4), 0.8 mM EDTA, 4 mM EGTA, 4% glycerol, 8 μg/ml aprotinin, 8 μg/ml leupeptin, 2 mM benzamidine, and 0.5 μCi of [γ-^32P]ATP. [^32P]Phosphoprotein formation was measured by adsorption onto phosphocellulose as described previously. See Nelson et al. (2009) J Biol Chem 284, 34514-34521. For measurements of activation by RA, PKC activity was measured in the absence of diacylglycerol (DAG) and phosphatidylserine, as described by Nelson et al. (2009) J Biol Chem 284, 34514-34521. PKC-δ and PKC-ε were measured in the absence of added EGTA and CaCl^2, as described by Kanno et al. (2006) J Lipid Res 47, 1146-1156. The enzyme was provided as a purified isozyme for in vitro experiments.
To measure PKC, 10 μl of cell homogenate or purified PKC isoform was incubated for 15 min at 37° C. in the presence of 10 μM histones, 4.89 mM CaCl2, 1.2 μg/μl phosphatidyl-L-serine, 0.18 μg/μl 1,2-dioctanoyl-sn-glycerol, 10 mM MgCl2, 20 mM HEPES (pH 7.4), 0.8 mM EDTA, 4 mM EGTA, 4% glycerol, 8 μg/ml aprotinin, 8 μg/ml leupeptin, and 2 mM benzamidine. [γ32P]ATP (0.5 μCi) was added and 32P-phosphoprotein formation was measured by adsorption onto phosphocellulose as described previously. See Nelson et al., J. Neurochemistry, 1995, 65: 2350-2357.
PKC activity of each compound was measured in the absence of diacylglycerol and phosphatidylserine and PKC-δ and PKC-ε were measured in the absence of added EGTA and CaCl2, as described by Kanno et al., J. Lipid Res., 2006, 47: 1146-1156. Low concentrations of Ca^2+ were needed because high Ca^2+ can interact with the PKC phosphatidylserine binding site and prevents activation. […] To determine their PKC isoform specificity, the compounds were pre-incubated with purified isoforms of PKC for five minutes and the PKC activity was measured radiometrically.

Sequence of PKC-δ (Q05655 whole entry): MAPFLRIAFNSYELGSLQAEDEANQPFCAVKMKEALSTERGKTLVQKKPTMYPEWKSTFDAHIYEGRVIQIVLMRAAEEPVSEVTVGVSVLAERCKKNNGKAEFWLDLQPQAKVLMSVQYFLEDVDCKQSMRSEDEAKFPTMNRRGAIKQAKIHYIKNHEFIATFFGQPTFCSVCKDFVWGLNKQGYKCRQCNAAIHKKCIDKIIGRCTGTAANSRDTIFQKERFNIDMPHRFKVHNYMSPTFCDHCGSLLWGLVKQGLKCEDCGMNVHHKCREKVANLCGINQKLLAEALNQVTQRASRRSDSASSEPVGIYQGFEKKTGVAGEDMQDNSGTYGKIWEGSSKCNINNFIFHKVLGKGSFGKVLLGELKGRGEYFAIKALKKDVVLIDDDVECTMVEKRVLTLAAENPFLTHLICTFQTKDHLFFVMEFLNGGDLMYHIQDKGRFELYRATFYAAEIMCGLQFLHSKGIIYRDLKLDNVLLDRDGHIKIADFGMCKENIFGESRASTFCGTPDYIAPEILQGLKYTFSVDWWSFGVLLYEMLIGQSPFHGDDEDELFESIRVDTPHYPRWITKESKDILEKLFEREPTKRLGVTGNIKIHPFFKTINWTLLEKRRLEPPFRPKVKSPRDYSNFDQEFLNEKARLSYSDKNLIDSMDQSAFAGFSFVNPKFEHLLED

SMILES | increase of synaptophysin expression (immunoblot) ([1]; alone, 72 hr) [%] | 3H-DCPLA-ME binding, 30 nM competitor [2] [%] | 3H-DCPLA-ME binding, 1 μM competitor [2] [%] | effect on PKC-δ (in words) (PKC-δ) | change in synaptophysin or PSD-95 (in words) ([1]; RA only)
CCC/C=C/C=C/C(=O)O[C@H]1/C(=C/C(=O)OC)C[C@H]2C[C@H]([C@@H](C)O)OC(=O)C[C@H](O)C[C@@H]3C[C@H](OC(C)=O)C(C)(C)C(O)(C[C@@H]4C/C(=C/C(=O)OC)C[C@H](/C=C/C(C)(C)[C@]1(O)O2)O4)O3 [Bryostatin-1] | 50 | 100 | 77 |  | 
CCCCCC1CC1CC1CC1CCCCCCCC(=O)OC (centres unmarked) [DCPLA-ME, methyl 8-(2-((2-pentylcyclopropyl)methyl)cyclopropyl)octanoate] |  | 64 | 37 | did not have a major effect; also recorded: less inhibitory effect on PKC-δ than DHA-CP6 and DCPLA | 
CC1=C(/C=C/C(C)=C/C=C/C(C)=C/C(=O)O)C(C)(C)CCC1 [RA, All-trans retinoic acid] |  |  |  | not activated | did not show much change
